# Reference: publication PMC8066339, “Optimization of 2-Acylaminocycloalkylthiophene Derivatives for Activity against Staphylococcus aureus RnpA” (Antibiotics, 2021)
# “Also recorded” adds a separate entry of the source.
# Key:
# [1] = tested on: Human liver epithelial cells (HEP G2); assay: MTT cytotoxicity testing; settings: for HEP G2 toxicity against 70% viability cut-off (in words): concentrations lower than 50 µM
# Protocol: For the scaffold to have translational significance, it must be non-toxic to human cells. Accordingly, an initial assessment of toxicity was performed using human liver epithelial (HEP G2) cells via a 3-(4,5-dimethylthiazol-2-yl)-2,5-diphenyltetrazolium bromide (MTT) assay in the presence of up to 400 µM of each analog. […] Viability of 70% was used as the cut-off criteria for toxicity (Figure 4, dashed line), according to ISO guidelines, as described in Materials and Methods.
# Human liver epithelial cells (HEP G2) were cultured in Dulbecco’s Modified Eagle Medium (DMEM; Fisher Scientific, Hampton, NH) supplemented with 10% heat inactivated fetal bovine serum (FBS; Corning Life Sciences) and 1% penicillin/streptomycin (Thermofisher Scientific). Cells were incubated at 37 °C with 5% CO2 in Nunc (Roskilde, Denmark) tissue culture flasks. Cells were grown in monolayers until exceeding 70% confluency, removed with 0.25% trypsin (Fisher Scientific), resuspended in fresh medium, and used to seed approximately 2.5 × 10^5 cells/mL into each well of a 96 well tissue culture microplate (Nunc) containing 200 µL of fresh medium. Cytotoxicity testing was conducted according to the guidelines of the International Organization for Standardization (ISO) 10993-5:2009. After 24 h of incubation, the cell media was removed, and adherent cells were washed with 1× phosphate buffered saline (PBS). Cell media was supplemented with 5% per volume of compound at final concentrations from 12.5 µM to 400 µM and incubated 20–24 h at 37 °C with 5% CO2. After incubation, medium supplemented with compound was removed from the wells and replaced with 100 µL of fresh culture medium. Then, 10 µL of 12 mM (3-(4,5-dimethylthiazol-2-yl)-2,5-diphenyltetrazolium bromide (MTT) stock reagent (CyQUANT MTT cell proliferation kit; Thermofisher Scientific) was added to each well. After labeling the cells with the MTT reagent, all but 25 µL of medium was removed from the wells, and 50 µL of DMSO was added to each well and mixed thoroughly and cells were incubated at 37 °C with 5% CO2 for 10 min. After incubation, wells were mixed again and using a SPECTRAmax5 microplate reader, absorbance was read at 540 nm. Cells were treated with 125 µg/mL mitomycin C (Fisher Scientific) to serve as a positive control and 2% DMSO as a negative control. […] All compounds were tested in two independent experiments in triplicate and cell viability was expressed as a percent of the negative control.
# S. aureus RnpA = molecular target: T1, S. aureus RnpA (Staphylococcus aureus, UniProt P0A0H5); assay: In vitro RnpA mRNA degradation assay (RNase Alert FRET substrate); assay type: biochemical; settings: for IC50: in vitro RnpA-mediated RNA degradation, read-out: mRNA IC50; for RNA degradation inhibition in time course study: 50 µM compound, 30 min at 37 °C, Figure 2A
# T1 construct: made in house; host or cells: E. coli BL21 (DE3)
# T1 sequence (P0A0H5 1-117): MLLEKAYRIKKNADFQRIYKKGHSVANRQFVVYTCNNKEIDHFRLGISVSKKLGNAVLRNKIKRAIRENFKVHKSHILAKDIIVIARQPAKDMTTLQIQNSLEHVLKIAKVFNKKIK
# Protocol: (§1) His-tagged RnpA was purified as previously described. E. coli BL21 (DE3) cells harboring plasmid pEXP5-nt containing a hexahistidine tag fused to the N-terminus of S.aureus RnpA coding region were grown in LB supplemented with 50 µg mL^−1 ampicillin to OD600 = 0.6 and induced with 1mM isopropyl β-D-1-thiogalactopyranoside (IPTG) for three hours to induce protein expression. […] Cells were mechanically lysed by three passes at 18,000 psi through a French Pressure Cell Press (SLM-Aminco; Pittsford, NY, USA) and cell debris was removed by centrifugation at 17,000× g for 10 min at 4 °C. Supernatants were collected, filtered through a 0.2 micron syringe filter, then loaded onto a 5 mL HisPur cobalt column (ThermoFisher Scientific, Waltham, MA, U.S.A.) using the BioRad Maximizer Duo-Flow Medium Pressure Chromatography System. Protein was eluted using an imidazole gradient (80 mM to 500 mM). Fractions were assessed for RnpA presence and purity via SDS-PAGE analysis, Coomassie staining and Western blotting using an anti-His antibody (Invitrogen; Grand Island, NY, USA).
# RnpA-mediated degradation was assessed using the Rnase Alert QC System (Thermofisher Scientific). 20 pmol of His-RnpA was combined with 0.4 μM (final concentration) FRET substrate and either DMSO (negative control) or compound ≤500 µM in 1× Rnase Alert Buffer. Reactions were assembled in 96-well PCR plates (BioRad) and incubated at 37 °C for 30 min in the BioRad CFX 96 Connect Real Time instrument, measuring fluorescence every 2 min at 490 nm excitation/520 nm emission. Percent inhibition of each compound was calculated at the 30 min time-point based on the following formula: (RFU of compound treated RnpA/RFU of DMSO-treated RnpA) × 100.
# RNase P (RnpA + rnpB) = molecular target: T2, RNase P (RnpA + rnpB) (Staphylococcus aureus, UniProt P0A0H5); assay: In vitro ptRNA^Tyr processing assay with reconstituted RNase P; assay type: biochemical; settings: for IC50: in vitro ptRNA^Tyr processing, average of at least two tests, read-out: ptRNA IC50
# T2 construct: made in house; host or cells: E. coli BL21 (DE3)
# T2 sequence (P0A0H5 1-117): T1 sequence (P0A0H5 1-117)
# Protocol: as §1
# rnpB and RNA substrates (spa, ptRNA^Tyr) for RnpA functional assays, as well as mature tRNA were synthesized in vitro, as previously described. Each gene was PCR amplified using S. aureus UAMS-1 chromosomal DNA as a template and the corresponding oligonucleotide primer pairs, in which the forward primers contained an RNA polymerase T7 promoter sequence. The following primer pairs were used in this study (T7 promoter underlined): T7-rnpB forward—[…] and rnpB reverse—[…]; T7-ptRNA^Tyr forward—[…] and ptRNA^Tyr reverse—TGGTGGAG GGGGGCAGATTC; T7-spa forward—[…] CGACGTCCAG and spa reverse—[…]. Resulting PCR products were analyzed on a 0.8% agarose gel and purified using the Qiagen QIAquick Gel Extraction kit, according to the manufacturer’s instructions. In vitro transcription was performed using the TranscriptAid T7 High Yield Transcription kit (Fermentas; Burlington, ON, Canada) following manufacturer’s instructions. Following in vitro transcription, the RNA was treated with DNase I for 90 min and re-purified using the Qiagen RNeasy Mini kit. RNA was quantified using a NanoDrop2000 spectrophotometer.
# S.aureus Rnase P activity assays were performed as previously described. Briefly, ptRNA^Tyr and rnpB RNA was denatured by heating to 95 °C for 5 min then slow cooled to room temperature. RNA species were then combined with 2× low salt buffer (50 mM Tris-HCl pH 8.0, 5 mM MgCl2) and incubated for 5 min at 37 °C. Rnase P was reconstituted by mixing an equal molar ratio of His-RnpA and rnpB for 15 min at 37 °C. […] Then, 5 pmol ptRNA^Tyr was added to each reaction and incubated for an additional 30 min at 37 °C. Reactions were stopped with 2× RNA loading dye (Thermo Scientific) and heating to 65 °C for 10 min. Samples were electrophoresed on a 7M urea/8% polyacrylamide gel then stained with 0.5 µg mL^−1 ethidium bromide. The BioRad EZ Gel Doc imaging system was used to visualize the RNA and relative abundance of mature tRNA^Tyr in the DMSO control or in the samples containing compound and analyzed using BioRad Image Lab densitometry software. The percent inhibitory activity of each compound was calculated using the following equation: (% experimental processing/% processing negative control) × 100.
SMILES,HEP G2 toxicity against 70% viability cut-off (in words) [1],Inhibition of in vitro RnpA-mediated RNA degradation (in words) (S. aureus RnpA),IC50 (S. aureus RnpA),Inhibition of in vitro RnpA ptRNA processing (in words) (RNase P (RnpA + rnpB)),IC50 (RNase P (RnpA + rnpB)),Therapeutic index ([1]; human),"Fold of the 50 µM cytotoxicity dose above the MIC against S. aureus ([1]; human, 50 µM)",RNA degradation inhibition in time course study (S. aureus RnpA),"Conversion of precursor tRNA to mature tRNA (RNase P (RnpA + rnpB); 0, 50, 250 or 500 µM, urea-PAGE, Figure 2B)"
Cc1cccc(NC(=O)c2c(NC(=O)C(F)(F)F)sc3c2CCCCC3)c1 [RNP0010],did not exhibit toxicity that was beyond the 70% cut-off criteria,least effective,224 µM,only inhibited the ptRNA processing function,70 µM,–,–,–,–
O=C(Nc1ccc(C(F)(F)F)cc1)c1c(NC(=O)C(F)(F)F)sc2c1CCCCC2 [RNP0012],–,good inhibitory properties,68 µM,good inhibitory properties,66 µM,~ 260,263 fold,varying degrees of RNA degradation inhibition,reduced conversion of precursor tRNA to mature tRNA in a dose dependent manner
O=C(Nc1cccc(Cl)c1)c1c(NC(=O)C(F)(F)F)sc2c1CCCCC2 [RNP0007],–,least effective; also recorded: weakly inhibited,175 µM,weakly inhibited,98 µM,–,–,varying degrees of RNA degradation inhibition,–
O=C(Nc1cccc(C(F)(F)F)c1)c1c(NC(=O)C(F)(F)F)sc2c1CCCCC2 [RNP0011],–,good inhibitory properties,59 µM,good inhibitory properties,57 µM,–,–,–,–
O=C(Nc1ccc(F)cc1)c1c(NC(=O)C(F)(F)F)sc2c1CCCCC2 [RNP0009],did not exhibit toxicity that was beyond the 70% cut-off criteria,least effective,> 250 µM,only inhibited the ptRNA processing function,79 µM,–,–,–,–
O=C(Nc1cccc(C(F)(F)F)c1)c1c(NC(=O)C(F)(F)F)sc2c1CCCC2 [RNP0016],–,good inhibitory properties,45 µM,good inhibitory properties,52 µM,–,–,–,–
O=C(Nc1cccc(F)c1)c1c(NC(=O)C(F)(F)F)sc2c1CCCC2 [RNP0013],–,good inhibitory properties,50 µM,–,95 µM,–,–,–,–
O=C(Nc1cccc(F)c1)c1c(NC(=O)C(F)(F)F)sc2c1CCCCC2 [RNP0008],did not exhibit toxicity that was beyond the 70% cut-off criteria,least effective,245 µM,only inhibited the ptRNA processing function,78 µM,–,–,varying degrees of RNA degradation inhibition,–
O=C(Nc1ccc(F)cc1)c1c(NC(=O)C(F)(F)F)sc2c1CCCC2 [RNP0014],–,strongest inhibitor,6.4 µM,weak effects; also recorded: weak or no inhibitory activity,138 µM,–,–,varying degrees of RNA degradation inhibition,–
O=C(Nc1ccc(C(F)(F)F)cc1)c1c(NC(=O)C(F)(F)F)sc2c1CCCC2 [RNP0015],–,good inhibitory properties,43 µM,greatest inhibitory activity; also recorded: good inhibitory properties,46 µM,–,–,–,–
